Patent US20130053337A1, “GUANIDINYLATED AMINOGLYCOSIDE-LIPID CONJUGATES” (UNIVERSITY OF MANITOBA, priority 2010, published 2013)
≈ marks a conversion by molar mass, not a printed value. Where two headings read alike, the source gives them in different places.

How the values were obtained:
S. pneumoniae ATCC 49619 = assay: MIC, broth macrodilution (CLSI), broth with 5% laked horse blood; assay type: cell-based, Streptococcus pneumoniae; conditions: S. pneumoniae ATCC49619
Protocol: (§1) All experiments were performed in duplicate.
(§2) Bacterial isolates studied included both reference strains obtained from the American Type Culture Collection (ATCC) as well as clinical strains obtained from the CAN-ICU study which was a national surveillance study assessing the prevalence of antimicrobial resistant pathogens in Canadian intensive care units (Zhanel et al., 2008). Isolates were kept frozen in skim milk at −80° C. until minimum inhibitory concentration (MIC) testing was carried out. Following two subcultures from frozen stock, the in vitro activities of peptides were determined by macrobroth dilution in accordance with the Clinical and Laboratory Standards Institute (CLSI) 2006 guidelines (Zhanel et al., 2008). Stock solutions of peptides were prepared and dilutions made as described by CLSI. Test tubes contained doubling antimicrobial dilutions of cation adjusted Mueller-Hinton broth and inoculated to achieve a final concentration of approximately 5×10^5 cfu/ml then incubated in ambient air for 24 hours prior to reading. Colony counts were performed periodically to confirm inocula. Quality control was regularly performed using ATCC QC organisms.

MRSE CAN-ICU 61589 = assay: MIC, broth macrodilution (CLSI); assay type: cell-based, methicillin-resistant Staphylococcus epidermidis
Protocol: as §1, §2

[1] = tested on: S. epidermidis ATCC 14990; assay: MIC, broth macrodilution (CLSI); assay type: cell-based, Staphylococcus epidermidis; conditions: S. epidermidis ATCC14990
Protocol: as §1, §2

MRSA ATCC 33592 = assay: MIC, broth macrodilution (CLSI); assay type: cell-based, methicillin-resistant Staphylococcus aureus; conditions: MRSA ATCC33592
Protocol: as §1, §2

S. aureus ATCC 29213 = assay: MIC, broth macrodilution (CLSI); assay type: cell-based, Staphylococcus aureus; conditions: S. aureus ATCC29213
Protocol: as §1, §2

P. aeruginosa ATCC 27853 = assay: MIC, broth macrodilution (CLSI); assay type: cell-based; conditions: P. aeruginosa ATCC27853
Protocol: as §1, §2

E. coli ATCC 25922 = assay: MIC, broth macrodilution (CLSI); assay type: cell-based; conditions: E. coli ATCC25922
Protocol: as §1, §2

[2] = tested on: E. coli (amikacin MIC 32 mg/L) CAN-ICU 63074; assay: MIC, broth macrodilution (CLSI); assay type: cell-based; conditions: E. coli CAN-ICU 63074
Protocol: as §1, §2

[3] = tested on: P. aeruginosa (gentamicin-resistant) CAN-ICU 62308; assay: MIC, broth macrodilution (CLSI); assay type: cell-based; conditions: P. aeruginosa CAN-ICU 62308
Protocol: as §1, §2

[4] = tested on: E. coli (gentamicin-resistant) CAN-ICU 61714; assay: MIC, broth macrodilution (CLSI); assay type: cell-based; conditions: E. coli CAN-ICU 61714
Protocol: as §1, §2

[5] = tested on: sheep red blood cell (erythrocytes); assay: Hemolytic assay (in vitro toxicity)
Protocol: Antibacterial activity against Gram-positive and Gram-negative microorganisms was tested via broth macrodilution tests using CLSI methodology (Zhanel et al., 2008). Stock solutions of cationic lipids in water were brought to a concentration of 512 mg/L. Organisms were subcultured and isolated on blood agar, suspended in 3 mL of Mueller-Hinton broth at the turbidity of a […], and diluted to approximately 10^5 cfu/mL before introduction into tubes containing serially diluted lipopeptide antibiotic in Mueller-Hinton broth. Activity testing against S. pneumoniae used broth supplemented with laked horse blood to give 5% horse blood in experimental tubes. Turbidity of lipopeptide solution in broth required creation of control tubes lacking organisms serving as turbidity controls. All tubes were incubated overnight for 16-20 h at 37° C. […] All experiments were performed in duplicate. In-vitro toxicity was determined using a sheep red blood cell hemolytic assay as previously described (Dathe et al., 1996).
In vitro toxicity was determined using a sheep red blood cell (erythrocytes) hemolytic assay (Dathe et al., 1996). […] Erythrocytes were washed and resuspended in Tris buffered saline. The cell suspension was combined with varying concentrations (low to very high) of test and control antimicrobials (e.g., aminoglycosides and APTCs). The samples were centrifuged and the absorbance of the supernatants measured at 540 nm. Tris buffered saline and Triton X were used as negative and positive controls, respectively. The toxicity was assessed by percent hemolysis.

E. faecium ATCC 27270 = assay: MIC, broth macrodilution (CLSI); assay type: cell-based, Enterococcus faecium; conditions: E. facium ATCC27270
Protocol: as §1, §2

E. faecalis ATCC 29212 = assay: MIC, broth macrodilution (CLSI); assay type: cell-based, Enterococcus faecalis; conditions: E. faecalis ATCC29212
Protocol: as §1, §2

[6] = 100 mg/L, sheep erythrocytes, percent hemolysis

Compound | MIC (S. pneumoniae ATCC 49619) [mg/L] | MIC (MRSE CAN-ICU 61589) [mg/L] | MIC [1] [mg/L] | MIC (MRSA ATCC 33592) [mg/L] | MIC (S. aureus ATCC 29213) [mg/L] | MIC (P. aeruginosa ATCC 27853) [mg/L] | MIC (E. coli ATCC 25922) [mg/L] | MIC [2] [mg/L] | MIC [3] [mg/L] | MIC [4] [mg/L] | hemolytic activity at 100 mg/L [5] [%] | MIC (E. faecium ATCC 27270) [mg/L] | hemolytic activity at 100 mg/L [5, 6] [%] | MIC (E. faecalis ATCC 29212) [mg/L] | hemolytic activity compared to polyamine analogs 3 and 15 [5]
CCCCCCCCCCCC(=O)NC[C@H]1O[C@@H](O[C@@H]2[C@@H](O)[C@H](N)C[C@H](N)[C@H]2O[C@H]2O[C@H](CN)[C@@H](O)[C@H](O)[C@H]2N)[C@H](O)[C@@H]1O[C@H]1O[C@@H](CN)[C@@H](O)[C@H](O)[C@H]1N.O=C(O)C(F)(F)F.O=C(O)C(F)(F)F.O=C(O)C(F)(F)F.O=C(O)C(F)(F)F.O=C(O)C(F)(F)F.O=C(O)C(F)(F)F [Compound 2] | 128 | 8 | 4 | >256 | 32 | 256 | 64 | 128 | 256 | 64 |  |  |  |  | 
CCCCCCCCCCCCCCCC(=O)NC[C@H]1O[C@@H](O[C@@H]2[C@@H](O)[C@H](N)C[C@H](N)[C@H]2O[C@H]2O[C@H](CN)[C@@H](O)[C@H](O)[C@H]2N)[C@H](O)[C@@H]1O[C@H]1O[C@@H](CN)[C@@H](O)[C@H](O)[C@H]1N.O=C(O)C(F)(F)F.O=C(O)C(F)(F)F.O=C(O)C(F)(F)F.O=C(O)C(F)(F)F.O=C(O)C(F)(F)F.O=C(O)C(F)(F)F [Compound 3] | 64 | 2 | 2 | 8 | 4 | 128 | 32 |  | 128 | 64 | 56 |  |  |  | 
CCCCCCCCCCCCCCCCCCCC(=O)NC[C@H]1O[C@@H](O[C@@H]2[C@@H](O)[C@H](N)C[C@H](N)[C@H]2O[C@H]2O[C@H](CN)[C@@H](O)[C@H](O)[C@H]2N)[C@H](O)[C@@H]1O[C@H]1O[C@@H](CN)[C@@H](O)[C@H](O)[C@H]1N.O=C(O)C(F)(F)F.O=C(O)C(F)(F)F.O=C(O)C(F)(F)F.O=C(O)C(F)(F)F.O=C(O)C(F)(F)F.O=C(O)C(F)(F)F [Compound 4] | 64 | 4 | 4 | 8 | 8 | 128 | 128 | 64 | 64 | 128 | 82 |  |  |  | 
CCCCC/C=C\C/C=C\CCCCCCCC(=O)NC[C@H]1O[C@@H](O[C@@H]2[C@@H](O)[C@H](N)C[C@H](N)[C@H]2O[C@H]2O[C@H](CN)[C@@H](O)[C@H](O)[C@H]2N)[C@H](O)[C@@H]1O[C@H]1O[C@@H](CN)[C@@H](O)[C@H](O)[C@H]1N.O=C(O)C(F)(F)F.O=C(O)C(F)(F)F.O=C(O)C(F)(F)F.O=C(O)C(F)(F)F.O=C(O)C(F)(F)F.O=C(O)C(F)(F)F [Compound 5] | 128 | 4 | 4 | 32 | 16 | 256 | 128 | 128 | 128 | 64 |  |  |  |  | 
NC[C@@H]1O[C@H](O[C@H]2[C@@H](O)[C@H](O[C@@H]3[C@@H](O)[C@H](N)C[C@H](N)[C@H]3O[C@H]3O[C@H](CN)[C@@H](O)[C@H](O)[C@H]3N)O[C@@H]2CNC(=O)CCCc2ccc3ccc4cccc5ccc2c3c45)[C@H](N)[C@@H](O)[C@@H]1O.O=C(O)C(F)(F)F.O=C(O)C(F)(F)F.O=C(O)C(F)(F)F.O=C(O)C(F)(F)F.O=C(O)C(F)(F)F.O=C(O)C(F)(F)F [Compound 6] | >512 | 64 | 2 | 256 | 16 | >512 | 32 | 64 | 256 | 64 |  |  |  |  | 
C[C@H](CCC(=O)NC[C@H]1O[C@@H](O[C@@H]2[C@@H](O)[C@H](N)C[C@H](N)[C@H]2O[C@H]2O[C@H](CN)[C@@H](O)[C@H](O)[C@H]2N)[C@H](O)[C@@H]1O[C@H]1O[C@@H](CN)[C@@H](O)[C@H](O)[C@H]1N)[C@H]1CC[C@H]2[C@@H]3[C@H](O)C[C@@H]4C[C@H](O)CC[C@]4(C)[C@H]3C[C@H](O)[C@]12C.O=C(O)C(F)(F)F.O=C(O)C(F)(F)F.O=C(O)C(F)(F)F.O=C(O)C(F)(F)F.O=C(O)C(F)(F)F.O=C(O)C(F)(F)F [Compound 7] | >256 | 16 | 8 | 128 | 16 | >256 | 32 | 64 | 128 | 64 |  |  |  |  | 
CCCCCC(=O)NCC1OC(OC2C(O)C(NC(=N)N)CC(NC(=N)N)C2OC2OC(CNC(=N)N)C(O)C(O)C2NC(=N)N)C(O)C1OC1OC(CNC(=N)N)C(O)C(O)C1NC(=N)N.O=C(O)C(F)(F)F.O=C(O)C(F)(F)F.O=C(O)C(F)(F)F.O=C(O)C(F)(F)F.O=C(O)C(F)(F)F.O=C(O)C(F)(F)F (centres unmarked) [Compound 8, 1,3,2′,6′,2′″,6′″-Hexaammonium-guanidinyl-5″-deoxy-5″-N-(hexanoyl)-neomycin hexakis(trifluoroacetate)] | >128 | 64 | 64 |  | 128 |  | 128 |  |  |  |  | 256 |  |  | 
CCCCCCCCCCCC(=O)NCC1OC(OC2C(O)C(NC(=N)N)CC(NC(=N)N)C2OC2OC(CNC(=N)N)C(O)C(O)C2NC(=N)N)C(O)C1OC1OC(CNC(=N)N)C(O)C(O)C1NC(=N)N.O=C(O)C(F)(F)F.O=C(O)C(F)(F)F.O=C(O)C(F)(F)F.O=C(O)C(F)(F)F.O=C(O)C(F)(F)F.O=C(O)C(F)(F)F (centres unmarked) [Compound 9, 1,3,2′,6′,2′″,6′″-Hexaammonium-guanidinyl-5″-deoxy-5″-N-(dodecanoyl)-neomycin hexakis(trifluoroacetate)] | 64 | 2 | 2 | 8 | 4 | 32 | 16 | 16 | 32 | 32 |  | 16 | 2 | 32 | 
CC(C)c1cc(C(C)C)c(S(=O)(=O)OCC2OC(OC3C(NC(=O)OC(C)(C)C)CC(NC(=O)OC(C)(C)C)C(OC4OC(CNC(=O)OC(C)(C)C)C(O)C(O)C4O)C3O)C(O)C(NC(=O)OC(C)(C)C)C2O)c(C(C)C)c1 (centres unmarked) [Compound 17, 6″-(2,4,6-Triisopropylbenzenesulfonyl)-1,3,6′,3″-tetra-N-(tert-butoxycarbonyl)kanamycin A] |  |  |  |  |  |  |  |  |  |  |  |  |  |  | reduced hemolytic activity
NC[C@H]1O[C@H](O[C@H]2[C@H](O)[C@@H](O[C@H]3O[C@H](CO)[C@@H](O)[C@H](N)[C@H]3O)[C@H](N)C[C@@H]2N)[C@H](O)[C@@H](O)[C@@H]1O [Kanamycin A, reference compound] | 8 (≈ 16.5 µM) | 128 (≈ 264 µM) | 2 (≈ 4.13 µM) | >512 | 4 (≈ 8.26 µM) | >512 | 8 (≈ 16.5 µM) | 32 (≈ 66 µM) | >512 | 16 (≈ 33 µM) |  |  | <0.4 |  | 
